Data: PubChem BioAssay AID248 (DTP/NCI, 2004)
“And” between values parts separate entries of the source, which are not always exact repeats. Equal entries are not always repeated. Toxic doses and inconclusive results are not listed. Rule as the data show it: active = T/C of 150% or more; inactive = T/C below 125%. Peptide text beside a SMILES is read from it. * marks the point of attachment. Tos = Cc1ccc(S(=O)(=O)*)cc1

Test system: L1210 leukemia ip in BDF1 mice, survival T/C
Assay: NCI In Vivo Anticancer Drug Screen. Data for tumor model L1210 Leukemia (intraperitoneal) in B6D2F1 (BDF1) mice
Settings: endpoint: mean survival time, higher = longer survival
Method in brief: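 Ratio derived from survival: compound-dosed mice over vehicle-dosed mice, all bearing a transplantable tumor.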

[1] = dose: 100.0 mg/kg/injection, schedule: Q01DX009 (ip), vehicle: saline with Tween-80
[2] = dose: 100.0 mg/kg/injection, schedule: Q04DX003 (ip), vehicle: saline with Tween-80
[3] = dose: 400.0 mg/kg/injection, schedule: Q04DX003 (ip), vehicle: saline with Tween-80
[4] = dose: 100.0 mg/kg/injection, schedule: Q01DX009 (ip), vehicle: saline
[5] = dose: 200.0 mg/kg/injection, schedule: Q01DX009 (ip), vehicle: saline
[6] = dose: 25.0 mg/kg/injection, schedule: Q04DX003 (ip), vehicle: Klucel (hydroxypropylcellulose) (HPC)
[7] = dose: 50.0 mg/kg/injection, schedule: Q04DX003 (ip), vehicle: Klucel (hydroxypropylcellulose) (HPC)
[8] = dose: 100.0 mg/kg/injection, schedule: Q01DX009 (ip), vehicle: Klucel (hydroxypropylcellulose) (HPC)
[9] = dose: 200.0 mg/kg/injection, schedule: Q01DX009 (ip), vehicle: Klucel (hydroxypropylcellulose) (HPC)
[10] = dose: 400.0 mg/kg/injection, schedule: Q01DX009 (ip), vehicle: Klucel (hydroxypropylcellulose) (HPC)

Measured: T/C

O=C1OCCN1N1C(=O)CC2(CCCCC2)C1=O
inactive: dose: 50.0 mg/kg/injection, schedule: Q01DX001 (ip), vehicle: Klucel (hydroxypropylcellulose) (HPC) 100 % of control | dose: 100.0 mg/kg/injection, schedule: Q01DX001 (ip), vehicle: Klucel (hydroxypropylcellulose) (HPC) 107 % of control | dose: 200.0 mg/kg/injection, schedule: Q01DX001 (ip), vehicle: Klucel (hydroxypropylcellulose) (HPC) 97 % of control

S=c1nn[nH]n1C1CCCCC1
inactive: dose: 25.0 mg/kg/injection, schedule: Q01DX009 (ip), vehicle: saline with Tween-80 92 % of control | dose: 50.0 mg/kg/injection, schedule: Q01DX009 (ip), vehicle: saline with Tween-80 88 % of control | [1] 90 % of control | [2] 103 % of control | [3] 87 % of control

C[n+]1c(-c2cccc3ccccc23)c2cc([N+](=O)[O-])ccc2c2ccccc21
inactive: dose: 6.25 mg/kg/injection, schedule: Q01DX009 (ip), vehicle: water 104 % of control | dose: 12.5 mg/kg/injection, schedule: Q01DX009 (ip), vehicle: water 100 % of control | dose: 12.5 mg/kg/injection, schedule: Q04DX003 (ip), vehicle: water 98 % of control | dose: 25.0 mg/kg/injection, schedule: Q04DX003 (ip), vehicle: water 105 % of control | dose: 50.0 mg/kg/injection, schedule: Q04DX003 (ip), vehicle: water 93 % of control

Cc1ccc(S(=O)(=O)NCC(=O)NCC(=O)O)cc1 (Tos-Gly-Gly-OH)
inactive: [4] 105 % of control | [5] 94 % of control | dose: 400.0 mg/kg/injection, schedule: Q01DX009 (ip), vehicle: saline 96 % of control

O=C(O)CC(C(=O)O)c1ccccc1O (stereo not given)
inactive: [6] 95 % of control | dose: 50.0 mg/kg/injection, schedule: Q01DX001 (ip), vehicle: saline 100 % of control | [7] 93 % of control | dose: 100.0 mg/kg/injection, schedule: Q01DX001 (ip), vehicle: saline 96 % of control | dose: 200.0 mg/kg/injection, schedule: Q01DX001 (ip), vehicle: saline 90 % of control

O=C(Nc1cc(Cl)c(Cl)cc1Cl)Nc1cc(Cl)ccc1Oc1ccc(Cl)cc1S(=O)(=O)O
inactive: dose: 50.0 mg/kg/injection, schedule: Q04DX003 (ip), vehicle: alcohol 97 % of control | dose: 100.0 mg/kg/injection, schedule: Q04DX003 (ip), vehicle: alcohol 103 % of control | dose: 200.0 mg/kg/injection, schedule: Q04DX003 (ip), vehicle: alcohol 103 % of control

Cc1ccc(NC(N)=O)cc1Cl
inactive: [8] 105 % of control | [9] 107 % of control | [10] 102 % of control

O=[N+]([O-])c1c(Cl)ccc2nsnc12
inactive: dose: 12.5 mg/kg/injection, schedule: Q04DX003 (ip), vehicle: Klucel (hydroxypropylcellulose) (HPC) 96 % of control | [6] 93 % of control

COc1ccc(C=[N+](C)CCc2ccc(OC)c(OC)c2)cc1OC
inactive: dose: 25.0 mg/kg/injection, schedule: Q01DX009 (ip), vehicle: saline 96 % of control | dose: 50.0 mg/kg/injection, schedule: Q01DX009 (ip), vehicle: saline 101 % of control | [4] 93 % of control and 116 % of control | dose: 100.0 mg/kg/injection, schedule: Q04DX003 (ip), vehicle: saline 100 % of control | [5] 98 % of control and 91 % of control | dose: 200.0 mg/kg/injection, schedule: Q04DX003 (ip), vehicle: saline 97 % of control

CC(C)=NC(=O)NO.[Cl][Mn][Cl]
inactive: dose: 37.5 mg/kg/injection, schedule: Q01DX009 (ip), vehicle: saline 105 % of control | dose: 75.0 mg/kg/injection, schedule: Q01DX001 (ip), vehicle: saline 91 % of control | dose: 75.0 mg/kg/injection, schedule: Q01DX009 (ip), vehicle: saline 111 % of control | dose: 150.0 mg/kg/injection, schedule: Q01DX001 (ip), vehicle: saline 104 % of control | dose: 150.0 mg/kg/injection, schedule: Q01DX009 (ip), vehicle: saline 105 % of control

Oc1ccc2ccc(O)cc2c1
inactive: dose: 100.0 mg/kg/injection, schedule: Q04DX002 (ip), vehicle: Klucel (hydroxypropylcellulose) (HPC) 105 % of control | dose: 200.0 mg/kg/injection, schedule: Q04DX002 (ip), vehicle: Klucel (hydroxypropylcellulose) (HPC) 108 % of control | dose: 400.0 mg/kg/injection, schedule: Q04DX002 (ip), vehicle: Klucel (hydroxypropylcellulose) (HPC) 102 % of control

NC(=O)c1ccccn1
inactive: dose: 50.0 mg/kg/injection, schedule: Q01DX009 (ip), vehicle: Klucel (hydroxypropylcellulose) (HPC) 98 % of control | [7] 100 % of control | [8] 95 % of control | dose: 100.0 mg/kg/injection, schedule: Q04DX003 (ip), vehicle: Klucel (hydroxypropylcellulose) (HPC) 102 % of control | [9] 87 % of control | dose: 200.0 mg/kg/injection, schedule: Q04DX003 (ip), vehicle: Klucel (hydroxypropylcellulose) (HPC) 101 % of control and 102 % of control

c1ccc(C2COC3(CCCCC3)O2)cc1 (stereo not given)
inactive: dose: 222.0 mg/kg/injection, schedule: Q01DX Z (ip), vehicle: methylcellulose (MC) 90 % of control | dose: 333.0 mg/kg/injection, schedule: Q01DX Z (ip), vehicle: methylcellulose (MC) 95 % of control

Nc1ccc(NC(=O)c2ccc(C(=O)Nc3ccc(N)cc3)cc2)cc1
inactive: dose: 30.0 mg/kg/injection, schedule: Q01DX Z (ip), vehicle: methylcellulose (MC) 103 % of control | dose: 60.0 mg/kg/injection, schedule: Q01DX Z (ip), vehicle: methylcellulose (MC) 103 % of control | dose: 120.0 mg/kg/injection, schedule: Q01DX Z (ip), vehicle: methylcellulose (MC) 95 % of control | dose: 125.0 mg/kg/injection, schedule: Q01DX Z (ip), vehicle: water 96 % of control | dose: 250.0 mg/kg/injection, schedule: Q01DX Z (ip), vehicle: water 93 % of control | dose: 500.0 mg/kg/injection, schedule: Q01DX Z (ip), vehicle: water 98 % of control

CC1(C)COC(=S)N1
inactive: dose: 3.13 mg/kg/injection, schedule: Q01DX009 (ip), vehicle: Klucel (hydroxypropylcellulose) (HPC) 100 % of control | dose: 5.0 mg/kg/injection, schedule: Q01DX009 (ip), vehicle: saline 100 % of control | dose: 5.0 mg/kg/injection, schedule: Q04DX003 (ip), vehicle: saline 98 % of control | dose: 6.25 mg/kg/injection, schedule: Q01DX009 (ip), vehicle: Klucel (hydroxypropylcellulose) (HPC) 103 % of control | dose: 10.0 mg/kg/injection, schedule: Q01DX009 (ip), vehicle: Klucel (hydroxypropylcellulose) (HPC) 97 % of control | dose: 10.0 mg/kg/injection, schedule: Q01DX009 (ip), vehicle: saline 100 % of control | dose: 10.0 mg/kg/injection, schedule: Q04DX003 (ip), vehicle: saline 102 % of control | dose: 12.5 mg/kg/injection, schedule: Q01DX009 (ip), vehicle: Klucel (hydroxypropylcellulose) (HPC) 97 % of control and 87 % of control | dose: 20.0 mg/kg/injection, schedule: Q04DX003 (ip), vehicle: Klucel (hydroxypropylcellulose) (HPC) 100 % of control | dose: 20.0 mg/kg/injection, schedule: Q04DX003 (ip), vehicle: saline 101 % of control

CC12C(=O)N(C3CCC(=O)NC3=O)C(=O)C1C1CCC2C1 (stereo not given)
inactive: [2] 96 % of control

COC1C(CO)OC(n2cnc3c(=O)[nH]c(N)nc32)C1O (stereo not given)
inactive: dose: 100.0 mg/kg/injection, schedule: Q01DX001 (ip), vehicle: carboxymethylcellulose (CMC) 98 % of control | dose: 200.0 mg/kg/injection, schedule: Q01DX001 (ip), vehicle: carboxymethylcellulose (CMC) 104 % of control | dose: 400.0 mg/kg/injection, schedule: Q01DX001 (ip), vehicle: carboxymethylcellulose (CMC) 114 % of control

C=C(Nc1ccc2ccccc2c1)S(=O)(=O)O
inactive: [8] 94 % of control | [9] 103 % of control | [10] 96 % of control

O=C(O)C1CC1Oc1ccccc1 (stereo not given)
inactive: [1] 96 % of control | [2] 110 % of control | dose: 200.0 mg/kg/injection, schedule: Q01DX009 (ip), vehicle: saline with Tween-80 92 % of control | dose: 200.0 mg/kg/injection, schedule: Q04DX003 (ip), vehicle: saline with Tween-80 108 % of control | dose: 400.0 mg/kg/injection, schedule: Q01DX009 (ip), vehicle: saline with Tween-80 87 % of control | [3] 106 % of control
